Measured values from patent US9610264B2, “Compounds for the treatment and prevention of retroviral infections” (KFLP Biotech, LLC, priority 2012, dated 2017).

Experiments:
HIV-1-LAI strain = assay: Antiviral assay in PHA-P-activated PBMC, RT activity in supernatants; format: cell-based; settings: day 7 RT activity
Method: Phytohemagglutinin (PHA)-P-activated PBMC were infected with the reference lymphotropic HIV-1-LAI strain (Wain-Hobson et al., Science, vol. 252, no. 5008, pp. 961-965 (1991)). This virus was amplified in vitro with PHA-P-activated blood mononuclear cells. Viral stocks were titrated using PHA-P-activated PBMC, and 50% tissue culture infectious doses (TCID50) was calculated using Karber's formula. PBMC were pretreated for 30 min by two concentrations of each molecule and infected with 125 TCID50 of this HIV-1 strain. AZT and T20 were used as reference anti-HIV molecule. Molecules were maintained throughout the culture, and cell supernatants were collected at day 7 post-infection and stored at −20° C. Viral replication was measured by quantifying reverse transcriptase (RT) activity in these cell culture supernatants using the Lenti RT activity kit (Cavidi). In parallel, cytotoxicity was evaluated on day 7 in uninfected PHA-P-activated PBMC using the colorimetric methyl-tetrazolium salt assay (MTS/PMS; Promega). Experiments were performed in triplicate and the inhibition of viral replication of the compounds was calculated using SoftMaxPro software (Molecular Devices Inc. CA, USA).
Dilutions in Cell Culture Medium Containing 0.1% DMSO (Final Concentration)

[1] = target: binding of HIV associated glycoprotein gp120 and the integrin α4β7 (Homo sapiens (Human), UniProt P13612+P26010); assay: ELISA assay of gp120 binding to integrin α4β7; set-up: species or system human (α4β7); HIV-1 ADA strain (gp120); settings: inhibition of gp120/α4β7 binding, triplicate with two anti-gp120 antibodies, read-out: IC50 a4b7
Sequence of binding of HIV associated glycoprotein gp120 and the integrin α4β7 (P13612 whole entry, looked up): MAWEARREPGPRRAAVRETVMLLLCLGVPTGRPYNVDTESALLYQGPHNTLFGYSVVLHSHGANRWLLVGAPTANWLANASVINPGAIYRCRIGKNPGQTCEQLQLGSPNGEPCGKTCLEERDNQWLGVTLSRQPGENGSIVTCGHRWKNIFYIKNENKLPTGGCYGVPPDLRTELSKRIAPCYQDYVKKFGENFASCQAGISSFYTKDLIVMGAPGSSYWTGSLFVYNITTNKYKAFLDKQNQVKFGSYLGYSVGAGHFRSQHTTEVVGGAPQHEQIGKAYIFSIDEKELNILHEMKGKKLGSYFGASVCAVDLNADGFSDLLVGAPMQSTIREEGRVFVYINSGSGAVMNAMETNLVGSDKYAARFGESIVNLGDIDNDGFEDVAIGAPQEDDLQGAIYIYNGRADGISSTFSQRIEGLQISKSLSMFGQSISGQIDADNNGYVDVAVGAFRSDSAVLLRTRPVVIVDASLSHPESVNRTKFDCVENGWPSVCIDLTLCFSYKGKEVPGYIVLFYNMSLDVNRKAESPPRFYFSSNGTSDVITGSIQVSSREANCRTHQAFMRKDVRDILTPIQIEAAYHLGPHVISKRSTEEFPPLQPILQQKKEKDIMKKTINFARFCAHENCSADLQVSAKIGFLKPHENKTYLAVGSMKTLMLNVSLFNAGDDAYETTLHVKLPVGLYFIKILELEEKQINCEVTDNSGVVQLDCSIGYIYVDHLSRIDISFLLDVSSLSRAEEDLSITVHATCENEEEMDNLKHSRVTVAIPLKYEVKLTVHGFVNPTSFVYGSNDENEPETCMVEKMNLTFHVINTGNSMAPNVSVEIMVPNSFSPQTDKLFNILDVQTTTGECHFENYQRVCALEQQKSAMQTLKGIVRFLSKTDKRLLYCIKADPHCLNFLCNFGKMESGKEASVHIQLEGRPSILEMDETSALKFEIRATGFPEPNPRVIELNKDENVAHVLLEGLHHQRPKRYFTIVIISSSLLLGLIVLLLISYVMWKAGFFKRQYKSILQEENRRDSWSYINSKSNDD
Sequence of binding of HIV associated glycoprotein gp120 and the integrin α4β7 (P26010 whole entry, looked up): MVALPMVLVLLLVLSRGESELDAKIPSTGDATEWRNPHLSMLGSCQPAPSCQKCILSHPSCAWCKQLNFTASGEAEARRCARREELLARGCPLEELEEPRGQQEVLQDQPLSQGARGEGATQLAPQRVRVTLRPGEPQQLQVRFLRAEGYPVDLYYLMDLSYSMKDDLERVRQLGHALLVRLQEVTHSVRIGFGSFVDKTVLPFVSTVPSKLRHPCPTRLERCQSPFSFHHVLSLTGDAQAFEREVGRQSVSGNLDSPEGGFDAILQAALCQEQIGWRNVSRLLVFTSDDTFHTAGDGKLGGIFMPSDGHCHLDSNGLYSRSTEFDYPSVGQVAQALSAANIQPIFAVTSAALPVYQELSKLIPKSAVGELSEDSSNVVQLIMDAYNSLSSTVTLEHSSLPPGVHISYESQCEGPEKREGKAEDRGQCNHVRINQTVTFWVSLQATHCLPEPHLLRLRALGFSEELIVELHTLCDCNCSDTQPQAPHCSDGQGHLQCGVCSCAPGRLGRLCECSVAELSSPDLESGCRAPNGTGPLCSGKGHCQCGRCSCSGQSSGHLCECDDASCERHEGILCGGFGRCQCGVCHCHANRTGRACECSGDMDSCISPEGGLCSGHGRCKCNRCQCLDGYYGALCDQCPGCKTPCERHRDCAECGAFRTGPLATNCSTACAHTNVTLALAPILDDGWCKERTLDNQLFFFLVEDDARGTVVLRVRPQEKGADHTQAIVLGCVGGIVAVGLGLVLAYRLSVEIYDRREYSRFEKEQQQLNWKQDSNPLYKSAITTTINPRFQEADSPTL
Description: A sandwich assay was developed to screen for compounds that inhibit the binding of a4b7 to gp120. Without inhibitors, gp120 and a4b7 bind and this complex can be identified by addition of a mouse anti-gp120 mAb (step 3). This a4b7*gp120anti-gp120 mAb complex is then sequestered on the bottom surface of a 96 welled-plate coated with an anti-mouse secondary mAb (step 4). The complex is then detected by addition of a biotinylated primary mAb against a4b7 (step 5) and detected using an HRP-avidin (step 6). A positive binding event is identified by the presence of HPR activity within each well. The addition of an inhibitor (step 2) blocks the binding between gp120 and a4b7 leading to a lack or reduction of HRP activity as shown in steps 2-5 at the bottom of the figure.
Step 1: Prepare the antigen plate • a. Prepare a PBS stock solution containing 1 μM gp120 and 1 μM α4β7 • b. Add a 200 μL aliquot to each well of the antigen plate.
Step 2: Add the inhibitor. • a. Add 20 μL of a 10× stock of the inhibitor in PBS pH 7.2 containing 1% DMSO • b. Incubate at 4° C. for 6 h with shaking. This delivers the antigen plate.
Step 3: Prepare the binding plate. • a. Aspirate each well of the binding plate • b. Wash three times with 200 μL of wash buffer (PBS pH 7.2, containing 0.05% Tween 20). • c. Add 100 μL of a 0.5 μg/mL stock of the mouse anti-gp120 mAb in PBS pH 7.2 • d. Shake for 1 h at 23° C.
Step 4: Sequester the gp120*α4β7 complex. • a. Aspirate each well of the binding plate. • b. Wash three times with 200 μL of wash buffer. • c. Transfer the contents of the antigen plate to the corresponding wells in the binding plate. • d. Shake for 1 h at 23° C.
Step 5: Develop the binding plate. • a. Aspirate each well of the binding plate. • b. Wash three times with 200 μL of wash buffer. • c. Add 100 μL of a 0.1 μg/mL of the rat anti-α4β7 mAb. • d. Shake for 1 h at 37° C. • e. Aspirate each well of the binding plate. • f. Wash three times with 200 μL of wash buffer. • g. Add 100 μL of 0.2 μg/mL solution of the HRP-conjugated strepavidin • h. Shake for 1 h at 37° C. • i. Aspirate each well of the binding plate. • j. Wash three times with 200 μL of wash buffer. • k. Develop using QuantaBlu fluorogenic peroxidase substrate (ThermoScientific) • l. Evaluate the fluorescence output on a HTS7000 plate reader (Perkin Elmer).
The ELISA assay was applied to screen the compounds in the table, below, to further characterize their activity against the binding of HIV associated glycoprotein gp120 and the integrin α4β7.
The five-step assay developed was applied to screen the compounds in the table below. […] The experiments were run in triplicate using two antibodies against gp120.

[2] = system: HIV-1 R9 (CXCR4-tropic strain); assay: Infectivity assay in HeLa reporter cell line (HeLa-CD4-Bgal); format: cell-based; settings: HeLa reporter cells, HIV-1 R9, 36 h
Method: FIG. 2: Experimental outline to evaluate HIV infectivity in a HeLa reporter cell line HIV-1 particles are produced in 293T cells transfected with R9 HIV DNA in the absence of test compounds. Particles are collected, titrated by measuring the amount of p24 antigen and frozen until their use. In the infectivity assay HeLa-CD4-Bgal cells are preincubated for 20 min in the absence or presence of test compounds, and the viral particles are added. Infectivity is monitored with a beta-galactosidase enzymatic reaction 36 hours after infection. Test compounds and virus are left with the cells throughout the entire infection period.
Compounds were evaluated with a HeLa reporter cell line containing the bacterial b-galactosidase gene inserted in the cell chromosome under control of the viral LTR. […] HIV-1 R9 (CXCR4-tropic strain) was used in these experiments to challenge cells. Viruses were first produced by transfection of 293T cells with a plasmid DNA expressing HIV-1. Viral particles were harvested and frozen until use. Infectivity assays were performed incubating cells in the absence or presence of compounds for 20 min before addition of virus. Upon infection, virus and compounds were left with the cells for the entire period of infection (36 h). At that time the extent of infection was evaluated using a luminescent substrate of Bgal. FIG. 2 depicts the experimental outline used to evaluate the anti-HIV activity of lead compounds. Controls with known ARVs include AZT, a reverse-transcriptase inhibitor (RTI), and the HIV integrase inhibitor raltegravir. Controls with vehicle alone are also included

## Cc1cn([C@H]2C[C@H](N=[N+]=[N-])[C@@H](CO)O2)c(=O)[nH]c1=O [AZT, Zidovudine]
HIV-1-LAI strain; Human immunodeficiency virus 1, 168 h, 0.32 nM, read-out: inhibition of viral replication
  inhibition at 0.00032 µM: 16%
HIV-1-LAI strain; Human immunodeficiency virus 1, 168 h, 1.6 nM, read-out: inhibition of viral replication
  inhibition at 0.0016 µM: 59%
HIV-1-LAI strain; Human immunodeficiency virus 1, 168 h, 8 nM, read-out: inhibition of viral replication
  inhibition at 0.008 µM: 95%
HIV-1-LAI strain; Human immunodeficiency virus 1, 168 h, 40 nM, read-out: inhibition of viral replication
  inhibition at 0.04 µM: 100%
HIV-1-LAI strain; Human immunodeficiency virus 1, 168 h, 200 nM, read-out: inhibition of viral replication
  inhibition at 0.2 µM: 100%
HIV-1-LAI strain; Human immunodeficiency virus 1, 168 h, 1000 nM, read-out: inhibition of viral replication
  inhibition at 1 µM: 100%
HIV-1-LAI strain
  ED50: 1.3 nM
  ED70: 2.5 nM
  ED90: 6.6 nM

## O=C(CCc1ccccc1)Nc1ccccc1C(=O)NCc1ccccc1 [Compound 1]
[1]
  IC50: 0.33 nM

## O=C(Cc1ccc(F)cc1)Nc1ccccc1C(=O)NCc1ccccc1 [Compound 2]
[2]; 0.008 μM
  Inhibition of HIV infectivity in %: 69.28%
[2]; 0.04 μM
  Inhibition of HIV infectivity in %: 51.94%
[2]; 0.2 μM
  Inhibition of HIV infectivity in %: 62.3%
[2]; 1 μM
  Inhibition of HIV infectivity in %: 60.66%
[2]; 5 μM
  Inhibition of HIV infectivity in %: 13.81%
[2]; 25 μM
  Inhibition of HIV infectivity in %: 2.76%
[2]; 125 μM
  Inhibition of HIV infectivity in %: 4.1%
[2]
  EC50: 3400 nM
  EC90: 30600 nM
HIV-1-LAI strain; 3.2 nM
  inhibition of viral replication: 16% ± 4^
HIV-1-LAI strain; 16 nM
  inhibition of viral replication: −6% ± 22^
HIV-1-LAI strain; 80 nM
  inhibition of viral replication: 4% ± 8
HIV-1-LAI strain; 400 nM
  inhibition of viral replication: 6% ± 16
HIV-1-LAI strain; 2000 nM
  inhibition of viral replication: 22% ± 3^
HIV-1-LAI strain; 10000 nM
  inhibition of viral replication: 87% ± 9^
HIV-1-LAI strain
  ED50: 5590 ± 441 nM
  ED70: 8021 ± 710 nM
  ED90: 9826 ± 246 nM
[1]
  IC50: 0.89 nM

## Cc1ccc(CNC(=O)c2ccccc2NC(=O)CN2CCc3ccccc32)cc1 [Compound 3]
[2]; 0.008 μM
  Inhibition of HIV infectivity in %: 67.64%
[2]; 0.04 μM
  Inhibition of HIV infectivity in %: 58.63%
[2]; 0.2 μM
  Inhibition of HIV infectivity in %: 61.6%
[2]; 1 μM
  Inhibition of HIV infectivity in %: 42.22%
[2]; 5 μM
  Inhibition of HIV infectivity in %: 12.81%
[2]; 25 μM
  Inhibition of HIV infectivity in %: 2.39%
[2]; 125 μM
  Inhibition of HIV infectivity in %: 0.19%
[2]
  EC50: 1690 nM
  EC90: 15200 nM
[1]
  IC50: 19.2 nM

## O=C(CN1CCN(Cc2ccsc2)CC1)Nc1ccccc1C(=O)NCc1ccccc1 [Compound 4]
[1]
  IC50: 0.27 nM

## CC(NC(=O)c1ccccc1NC(=O)CN1C(=O)C(=O)N(Cc2ccccc2)C1=O)c1ccccc1 (stereo not drawn) [Compound 5]
[1]
  IC50: 0.64 nM

## Cc1ccc(CNC(=O)c2ccccc2NC(=O)CN2CCN(C(C)C(=O)NC3CC3)CC2)cc1 (stereo not drawn) [Compound 6]
[1]
  IC50: 0.61 nM

## CC1(c2ccc(F)cc2)NC(=O)N(CC(=O)Nc2ccccc2C(=O)NCc2ccccc2)C1=O (stereo not drawn) [Compound 7]
[1]
  IC50: 0.46 nM

## CC1CCCCN1CC(=O)Nc1ccccc1C(=O)NCc1ccccc1 (stereo not drawn) [Compound 9]
[1]
  IC50: 1.23 nM

## O=C(Nc1ccccc1C(=O)NCc1ccccc1)c1cccc([N+](=O)[O-])c1 [Compound 10]
[1]
  IC50: 1.53 nM

## CCC(=O)Nc1cccc(C(=O)Nc2ccccc2C(=O)NCc2ccc(C)cc2)c1 [Compound 12]
[1]
  IC50: 2.19 nM

## CC(NC(=O)c1ccccc1NC(=O)CN1CCc2ccccc21)c1ccccc1 (stereo not drawn) [Compound 13]
[1]
  IC50: 2.45 nM

## CC(NC(=O)c1ccccc1NC(=O)CN1C(=O)NC(Cc2ccccc2)C1=O)c1ccccc1 (stereo not drawn) [Compound 15]
[1]
  IC50: 2.8 nM

## enfuvirtide
HIV-1-LAI strain; 0.32 nM
  inhibition of viral replication: −9% ± 3
HIV-1-LAI strain; 1.6 nM
  inhibition of viral replication: 5% ± 15
HIV-1-LAI strain; 8 nM
  inhibition of viral replication: −13% ± 4
HIV-1-LAI strain; 40 nM
  inhibition of viral replication: 100% ± 0
HIV-1-LAI strain; 200 nM
  inhibition of viral replication: 100% ± 0
HIV-1-LAI strain; 1000 nM
  inhibition of viral replication: 100% ± 0
HIV-1-LAI strain
  ED50: 28.9 nM
  ED70: 30 nM
  ED90: 31.7 nM
